From PMC12185845, “How allosteric mutations control ligand binding in Lipocalin protein: odorant binding protein as a test case” (Cellular and Molecular Life Sciences: CMLS, 2025)
Changes are numbered by the printed parent chain. pKd: −log10 of the molar value.

Columns and labels:
Test in all cases: isothermal titration calorimetry, single-site fit
Type in all cases: binding
rOBP1 (rOBP1-wt) [1] = target: T1, rOBP1 (rOBP1-wt) (Rattus norvegicus, UniProt P08937, S50C/Y98C, form not given); settings: 50 mM sodium phosphate, pH 7.5, 25 °C
T1 construct: gene Obp1f; S7
T1 sequence (P08937 16-172 S50C/Y98C): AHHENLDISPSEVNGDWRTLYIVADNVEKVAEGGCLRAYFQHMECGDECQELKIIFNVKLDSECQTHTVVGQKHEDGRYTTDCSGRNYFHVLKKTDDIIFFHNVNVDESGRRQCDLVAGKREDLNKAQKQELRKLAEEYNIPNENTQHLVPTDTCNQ

rOBP1 (rOBP1-wt) [2] = target: T2, rOBP1 (rOBP1-wt) (Rattus norvegicus, UniProt P08937); settings: 50 mM sodium phosphate, pH 7.5, 25 °C
T2 construct: gene Obp1f; S7
T2 sequence (P08937 16-172): T1 sequence (P08937 16-172 S50C/Y98C) with C35S, C83Y

rOBP1 (rOBP1-wt) [3] = target: T2, rOBP1 (rOBP1-wt); settings: 50 mM sodium phosphate, pH 7.5, 25 °C; ligand up to the millimolar range; distal allosteric position

Row | Compound | binding (ITC) (rOBP1 (rOBP1-wt) [1]) | pKd (rOBP1 (rOBP1-wt) [2]) | binding (ITC) (rOBP1 (rOBP1-wt) [3])
1 | Cc1ccc(C(C)C)c(O)c1 [thymol] | total loss of binding for the three odorants as no heat change was observed | 6.36 | indicating a complete loss of affinity for all ligands
2 | C=CCc1ccc(O)c(OC)c1 [eugenol] | total loss of binding for the three odorants as no heat change was observed | 7.22 | indicating a complete loss of affinity for all ligands
